Numbered stars: 1 amine (or outer) side, 2 acyl side, 3 side chain; on linkers, the order of the positions; unused ones are H or OH. Square brackets hold non-standard residues; d marks the D form. Peptide text beside a SMILES is read from it. * marks the point of attachment. ξ: configuration not given here. X1 = CCC(=O)C[C@H](O)C[C@@H](C)C[C@H](N[*:1])C(=O)[*:2]; Nva(5-pentanoyl) = CCCCC(=O)CCC[C@H](N)C(=O)O; NH((S)CH(Me)CH2NHC2H4OH) = C[C@@H](CNCCO)N*; Gly(octyl) = CCCCCCCC[C@H](N)C(=O)O; Ala(cPr) = N[C@@H](CC1CC1)C(=O)O; Cha = N[C@@H](CC1CCCCC1)C(=O)O; Chg = N[C@H](C(=O)O)C1CCCCC1; Ac5c = NC1(C(=O)O)CCCC1; Nva = CCC[C@H](N)C(=O)O; Ac4c = NC1(C(=O)O)CCC1; Ac3c = NC1(C(=O)O)CC1; Aib = CC(C)(N)C(=O)O; Butyryl = CCCC(=O)*; ξP = O=C(O)C1CCCN1; βAla = NCCC(=O)O
How the values were obtained:
Assay type in all cases: functional, cell-based
[1] = test system: SK-BR-3; experiment: Antiproliferative activity against human SKBR3 cells
[2] = test system: MDA-MB-468; experiment: Antiproliferative activity against human MDA-MB-468 cells
[3] = test system: NCI-H460; experiment: Antiproliferative activity against human NCI-H460 cells
[4] = test system: T47D; experiment: Antiproliferative activity against human T47D cells

## CCCCCCCC[C@H](NC(=O)C(C)(C)NC(=O)C(C)(C)NC(=O)[C@H](C)NC(=O)C1CCCN1C(=O)CCC)C(=O)N[C@@H](CC(C)C)C(=O)NC(C)(C)C(=O)N[C@@H](CC(C)C)C(=O)NCCC(=O)N[C@@H](C)CNCCO (stereo partly drawn) (Butyryl-[ξP]A[Aib][Aib][Gly(octyl)]L[Aib]L[βAla]-{NH((S)CH(Me)CH2NHC2H4OH)})
[1]
  IC50: 343 nM
[2]
  IC50: 68 nM
[3]
  IC50: 71 nM
[4]
  IC50: 61 nM

## CCCCCCCC[C@H](NC(=O)C(C)(C)NC(=O)C(C)(C)NC(=O)C1(NC(=O)[C@@H]2CCCN2C(=O)CCC)CC1)C(=O)N[C@@H](CC(C)C)C(=O)NC(C)(C)C(=O)N[C@@H](CC(C)C)C(=O)NCCC(=O)N[C@@H](C)CNCCO (Butyryl-P[Ac3c][Aib][Aib][Gly(octyl)]L[Aib]L[βAla]-{NH((S)CH(Me)CH2NHC2H4OH)})
[1]
  IC50: 236 nM
[2]
  IC50: 64 nM
[3]
  IC50: 87 nM
[4]
  IC50: 57 nM

## CCCCCCCC[C@H](NC(=O)C(C)(C)NC(=O)C(C)(C)NC(=O)C1(NC(=O)[C@@H]2CCCN2C(=O)CCC)CCC1)C(=O)N[C@@H](CC(C)C)C(=O)NC(C)(C)C(=O)N[C@@H](CC(C)C)C(=O)NCCC(=O)N[C@@H](C)CNCCO (Butyryl-P[Ac4c][Aib][Aib][Gly(octyl)]L[Aib]L[βAla]-{NH((S)CH(Me)CH2NHC2H4OH)})
[1]
  IC50: 68 nM
[2]
  IC50: 16 nM
[3]
  IC50: 19 nM
[4]
  IC50: 17 nM

## CCCCCCCC[C@H](NC(=O)C(C)(C)NC(=O)[C@H](C)NC(=O)[C@H](CCCC(=O)CCCC)NC(=O)C1CCCN1C(=O)CCC)C(=O)N[C@@H](CC(C)C)C(=O)NC(C)(C)C(=O)N[C@@H](CC(C)C)C(=O)NCCC(=O)N[C@@H](C)CNCCO (stereo partly drawn) (Butyryl-[ξP][Nva(5-pentanoyl)]A[Aib][Gly(octyl)]L[Aib]L[βAla]-{NH((S)CH(Me)CH2NHC2H4OH)})
[1]
  IC50: 75 nM
[2]
  IC50: 42 nM
[3]
  IC50: 44 nM
[4]
  IC50: 31 nM

## CCCCCCCC[C@H](NC(=O)C(C)(C)NC(=O)C(C)(C)NC(=O)[C@H](CCCC(=O)CCCC)NC(=O)C1CCCN1C(=O)CCC)C(=O)N[C@@H](CC(C)C)C(=O)N[C@@H](C)C(=O)N[C@@H](CC(C)C)C(=O)NCCC(=O)N[C@@H](C)CNCCO (stereo partly drawn) (Butyryl-[ξP][Nva(5-pentanoyl)][Aib][Aib][Gly(octyl)]LAL[βAla]-{NH((S)CH(Me)CH2NHC2H4OH)})
[1]
  IC50: > 1000 nM
[2]
  IC50: > 1000 nM
[3]
  IC50: 266 nM
[4]
  IC50: > 1000 nM

## CCCCCCCC[C@H](NC(=O)C(C)(C)NC(=O)C(C)(C)NC(=O)[C@@H](NC(=O)[C@@H]1CCCN1C(=O)CCC)C1CCCCC1)C(=O)N[C@@H](CC(C)C)C(=O)NC(C)(C)C(=O)N[C@@H](CC(C)C)C(=O)NCCC(=O)N[C@@H](C)CNCCO (Butyryl-P[Chg][Aib][Aib][Gly(octyl)]L[Aib]L[βAla]-{NH((S)CH(Me)CH2NHC2H4OH)})
[1]
  IC50: 21 nM
[2]
  IC50: 10 nM
[3]
  IC50: 6 nM
[4]
  IC50: 8 nM

## CCCCCCCC[C@H](NC(=O)C(C)(C)NC(=O)C(C)(C)NC(=O)C1(NC(=O)[C@@H]2CCCN2C(=O)CCC)CCCC1)C(=O)N[C@@H](CC(C)C)C(=O)NC(C)(C)C(=O)N[C@@H](CC(C)C)C(=O)NCCC(=O)N[C@@H](C)CNCCO (Butyryl-P[Ac5c][Aib][Aib][Gly(octyl)]L[Aib]L[βAla]-{NH((S)CH(Me)CH2NHC2H4OH)})
[1]
  IC50: 118 nM
[2]
  IC50: 29 nM
[3]
  IC50: 36 nM
[4]
  IC50: 29 nM

## CCCC(=O)N1CCC[C@H]1C(=O)N[C@@H](C[C@H](C)C[C@@H](O)CC(=O)CC)C(=O)NC(C)(C)C(=O)NC(C)(C)C(=O)N[C@@H](C)C(=O)N[C@@H](CC(C)C)C(=O)NC(C)(C)C(=O)N[C@@H](CC(C)C)C(=O)NCCC(=O)N[C@@H](C)CNCCO (Butyryl-P[X1][Aib][Aib]AL[Aib]L[βAla]-{NH((S)CH(Me)CH2NHC2H4OH)})
[1]
  IC50: > 30000 nM
[2]
  IC50: > 1000 nM
[3]
  IC50: > 10000 nM
[4]
  IC50: > 1000 nM

## CCCCCCCC[C@H](NC(=O)C(C)(C)NC(=O)C(C)(C)NC(=O)[C@H](CC1CC1)NC(=O)[C@@H]1CCCN1C(=O)CCC)C(=O)N[C@@H](CC(C)C)C(=O)NC(C)(C)C(=O)N[C@@H](CC(C)C)C(=O)NCCC(=O)N[C@@H](C)CNCCO (Butyryl-P[Ala(cPr)][Aib][Aib][Gly(octyl)]L[Aib]L[βAla]-{NH((S)CH(Me)CH2NHC2H4OH)})
[1]
  IC50: 29 nM
[2]
  IC50: 10 nM
[3]
  IC50: 8 nM
[4]
  IC50: 10 nM

## CCCCCCCC[C@H](NC(=O)C(C)(C)NC(=O)C(C)(C)NC(=O)[C@H](CC1CCCCC1)NC(=O)[C@@H]1CCCN1C(=O)CCC)C(=O)N[C@@H](CC(C)C)C(=O)NC(C)(C)C(=O)N[C@@H](CC(C)C)C(=O)NCCC(=O)N[C@@H](C)CNCCO (Butyryl-P[Cha][Aib][Aib][Gly(octyl)]L[Aib]L[βAla]-{NH((S)CH(Me)CH2NHC2H4OH)})
[1]
  IC50: 12 nM
[2]
  IC50: 3 nM
[3]
  IC50: 2 nM
[4]
  IC50: 4 nM

## CCCCCCCC[C@H](NC(=O)C(C)(C)NC(=O)C(C)(C)NC(=O)[C@H](CCCC(=O)CCCC)NC(=O)[C@H](C)N)C(=O)N[C@@H](CC(C)C)C(=O)NC(C)(C)C(=O)N[C@@H](CC(C)C)C(=O)NCCC(=O)N[C@@H](C)CNCCO (H-A[Nva(5-pentanoyl)][Aib][Aib][Gly(octyl)]L[Aib]L[βAla]-{NH((S)CH(Me)CH2NHC2H4OH)})
[1]
  IC50: 18 nM
[2]
  IC50: 7 nM
[3]
  IC50: 5 nM
[4]
  IC50: 6 nM

## CCCCC(=O)CCC[C@H](NC(=O)C1CCCN1C(=O)CCC)C(=O)NC(C)(C)C(=O)NC(C)(C)C(=O)N[C@@H](C)C(=O)N[C@@H](CC(C)C)C(=O)NC(C)(C)C(=O)N[C@@H](CC(C)C)C(=O)NCCC(=O)N[C@@H](C)CNCCO (stereo partly drawn) (Butyryl-[ξP][Nva(5-pentanoyl)][Aib][Aib]AL[Aib]L[βAla]-{NH((S)CH(Me)CH2NHC2H4OH)})
[1]
  IC50: > 1000 nM
[2]
  IC50: > 1000 nM
[3]
  IC50: > 1000 nM
[4]
  IC50: > 1000 nM

## CCCCCCCC[C@H](NC(=O)[C@H](C)NC(=O)C(C)(C)NC(=O)[C@H](CCCC(=O)CCCC)NC(=O)C1CCCN1C(=O)CCC)C(=O)N[C@@H](CC(C)C)C(=O)NC(C)(C)C(=O)N[C@@H](CC(C)C)C(=O)NCCC(=O)N[C@@H](C)CNCCO (stereo partly drawn) (Butyryl-[ξP][Nva(5-pentanoyl)][Aib]A[Gly(octyl)]L[Aib]L[βAla]-{NH((S)CH(Me)CH2NHC2H4OH)})
[1]
  IC50: 24 nM
[2]
  IC50: 21 nM
[3]
  IC50: 20 nM
[4]
  IC50: 27 nM

## CCCC(=O)N1CCC[C@H]1C(=O)N[C@@H](C[C@H](C)C[C@@H](O)CC(=O)CC)C(=O)NC(C)(C)C(=O)NC(C)(C)C(=O)N[C@@H](CCC)C(=O)N[C@@H](CC(C)C)C(=O)NC(C)(C)C(=O)N[C@@H](CC(C)C)C(=O)NCCC(=O)N[C@@H](C)CNCCO (Butyryl-P[X1][Aib][Aib][Nva]L[Aib]L[βAla]-{NH((S)CH(Me)CH2NHC2H4OH)})
[1]
  IC50: > 1000 nM
[2]
  IC50: 274 nM
[3]
  IC50: > 1000 nM
[4]
  IC50: 420 nM

## CCCCCCCC[C@H](NC(=O)C(C)(C)NC(=O)C(C)(C)NC(=O)[C@H](Cc1ccc(O)cc1)NC(=O)[C@@H]1CCCN1C(=O)CCC)C(=O)N[C@@H](CC(C)C)C(=O)NC(C)(C)C(=O)N[C@@H](CC(C)C)C(=O)NCCC(=O)N[C@@H](C)CNCCO (Butyryl-PY[Aib][Aib][Gly(octyl)]L[Aib]L[βAla]-{NH((S)CH(Me)CH2NHC2H4OH)})
[1]
  IC50: 155 nM
[2]
  IC50: 35 nM
[3]
  IC50: 71 nM
[4]
  IC50: 32 nM

## CCCC(=O)N1CCC[C@H]1C(=O)N[C@@H](C[C@H](C)C[C@@H](O)CC(=O)CC)C(=O)NC(C)(C)C(=O)NC(C)(C)C(=O)N[C@H](C(=O)N[C@@H](CC(C)C)C(=O)NC(C)(C)C(=O)N[C@@H](CC(C)C)C(=O)NCCC(=O)N[C@@H](C)CNCCO)[C@@H](C)CC (Butyryl-P[X1][Aib][Aib]IL[Aib]L[βAla]-{NH((S)CH(Me)CH2NHC2H4OH)})
[1]
  IC50: > 1000 nM
[2]
  IC50: 142 nM
[3]
  IC50: > 500 nM
[4]
  IC50: 251 nM

## CCCCCCCC[C@H](NC(=O)C(C)(C)NC(=O)C(C)(C)NC(=O)[C@H](CCCC(=O)CCCC)NC(=O)C1CCCN1C(=O)CCC)C(=O)N[C@@H](CC(C)C)C(=O)NC(C)(C)C(=O)N[C@@H](CC(C)C)C(=O)NCCC(=O)N[C@@H](C)CNCCO (stereo partly drawn) (Butyryl-[ξP][Nva(5-pentanoyl)][Aib][Aib][Gly(octyl)]L[Aib]L[βAla]-{NH((S)CH(Me)CH2NHC2H4OH)})
[1]
  IC50: 47 nM
[2]
  IC50: 20 nM
[3]
  IC50: 18 nM
[4]
  IC50: 11 nM

## CCCCCCCC[C@H](NC(=O)C(C)(C)NC(=O)C(C)(C)NC(=O)[C@H](CCCC(=O)CCCC)NC(=O)C1CCCN1C(=O)CCC)C(=O)N[C@@H](CC(C)C)C(=O)N[C@@H](C)C(=O)N[C@@H](C)C(=O)NCCC(=O)N[C@@H](C)CNCCO (stereo partly drawn) (Butyryl-[ξP][Nva(5-pentanoyl)][Aib][Aib][Gly(octyl)]LAA[βAla]-{NH((S)CH(Me)CH2NHC2H4OH)})
[1]
  IC50: > 1000 nM
[2]
  IC50: 314 nM
[3]
  IC50: 96 nM
[4]
  IC50: 101 nM

## CCCCCCCC[C@H](NC(=O)C(C)(C)NC(=O)C(C)(C)NC(=O)[C@H](C[C@H](C)C[C@@H](O)CC(=O)CC)NC(=O)[C@@H]1CCCN1C(=O)CCC)C(=O)N[C@@H](CC(C)C)C(=O)NC(C)(C)C(=O)N[C@@H](CC(C)C)C(=O)NCCC(=O)N[C@@H](C)CNCCO (Butyryl-P[X1][Aib][Aib][Gly(octyl)]L[Aib]L[βAla]-{NH((S)CH(Me)CH2NHC2H4OH)})
[1]
  IC50: 25 nM
[2]
  IC50: 4 nM
[3]
  IC50: 8 nM
[4]
  IC50: 3 nM

Source: ChEMBL document CHEMBL4619722, “Alanine scan-guided synthesis and biological evaluation of analogues of culicinin D, a potent anticancer peptaibol” (Bioorg Med Chem Lett, 2020)
